From US8309554B2 (priority 2008, dated 2012) come the findings set out here.

For one assay, the system named is HT29. Kind of assay: cells. The note with it: for IC50: Homo sapiens, HT-29, 2 h. Type of assay: cell-based.
The next assay concerns H460. Kind of assay: cells. In kind it is cell-based. The conditions noted are these: for IC50: Homo sapiens, NCI-H460, 2 h.

Where two headings read alike, the source gives them in different places.

On to `Nc1ncccc1CC(c1ccsc1[N+](=O)[O-])S(=O)(=O)Oc1ccc(N(CCCl)CCCl)cc1.O=C(O)C(F)(F)F` (centres unmarked) [TH-1374], for which the “HT29 HCR: Air/N2” value with HT29 turned out to be 23. Besides, the IC50 – broadly, the concentration at which inhibition is half-maximal – is 630 µM in the assay on HT29 (read-out: 2 hr Air HT29 IC50), 28 µM in the assay on HT29 (read-out: 2 hr N2 HT29 IC50), 145 µM in the assay on H460 (read-out: 2 hr Air H460 IC50) and 2 µM in the assay with H460 (read-out: 2 hr N2 H460 IC50). Further, the “H460 HCR: Air/N2” value in the assay on H460 was 73.
In the case of `O=[N+]([O-])c1sccc1C(CNS(=O)(=O)c1ccccc1)S(=O)(=O)Oc1ccc(N(CCCl)CCCl)cc1` (centres unmarked) [TH-1218, 3-(4-(N,N-bis-(2-Chloroethyl)amino)phenoxysulfonyl-(phenylsulfonylaminomethyl))methyl-2-nitrothiophene], the IC50 with HT29 (read-out: 2 hr Air HT29 IC50) was above 300 µM; with HT29 (read-out: 2 hr N2 HT29 IC50), above 300 µM; with H460 (read-out: 2 hr Air H460 IC50) it was 74 µM; with H460 (read-out: 2 hr N2 H460 IC50), 0.7 µM. Besides, in the assay on H460, the “H460 HCR: Air/N2” value amounted to 106.
For `O=[N+]([O-])c1sccc1C(Cc1ccc2nccn2c1)S(=O)(=O)Oc1ccc(N(CCCl)CCCl)cc1` (centres unmarked) [TH-1435, 3-(4-(N,N-bis-(2-Chloroethyl)amino)phenoxysulfonyl-(imidazopyidin-5-yl-methyl))methyl-2-nitrothiophene], the “HT29 HCR: Air/N2” value with HT29 was above 35. The IC50 with HT29 (read-out: 2 hr Air HT29 IC50) is above 300 µM; in the assay with HT29 (read-out: 2 hr N2 HT29 IC50), 8.5 µM; in the assay on H460 (read-out: 2 hr Air H460 IC50), 18 µM; in the assay with H460 (read-out: 2 hr N2 H460 IC50), 0.6 µM. Besides, the “H460 HCR: Air/N2” value in the assay on H460 came out at 30.
Consider `CNc1ccc(CC(c2ccsc2[N+](=O)[O-])S(=O)(=O)Oc2ccc(N(CCCl)CCCl)cc2)cn1` (centres unmarked) [TH-1442], for which, in the assay on HT29, the “HT29 HCR: Air/N2” value is 66. The IC50 with HT29 (read-out: 2 hr Air HT29 IC50) was 230 µM; in the assay with HT29 (read-out: 2 hr N2 HT29 IC50) it was 3.5 µM; with H460 (read-out: 2 hr Air H460 IC50), 93 µM; with H460 (read-out: 2 hr N2 H460 IC50), 0.8 µM. Further, the “H460 HCR: Air/N2” value in the assay on H460 was 116.
`CCCN(CCCl)c1ccc(OS(=O)(=O)C(Cc2ncco2)c2ccsc2[N+](=O)[O-])cc1` (centres unmarked) [TH-1422]: in the assay on HT29, the “HT29 HCR: Air/N2” value is listed as above 3.3. Besides, the IC50 is above 300 µM in the assay with HT29 (read-out: 2 hr Air HT29 IC50), 90 µM in the assay on HT29 (read-out: 2 hr N2 HT29 IC50), 35 µM in the assay with H460 (read-out: 2 hr Air H460 IC50) and 0.4 µM with H460 (read-out: 2 hr N2 H460 IC50). The “H460 HCR: Air/N2” value with H460 stood at 88.
For the molecule `O=C(CO)Nc1ncccc1CC(c1ccsc1[N+](=O)[O-])S(=O)(=O)Oc1ccc(N(CCCl)CCCl)cc1` (centres unmarked) [TH-1384], the “HT29 HCR: Air/N2” value in the assay on HT29 came out at 16. Also, the IC50 was 275 µM in the assay with HT29 (read-out: 2 hr Air HT29 IC50), 17 µM with HT29 (read-out: 2 hr N2 HT29 IC50), 64 µM with H460 (read-out: 2 hr Air H460 IC50) and 2.1 µM with H460 (read-out: 2 hr N2 H460 IC50). Moreover, the “H460 HCR: Air/N2” value in the assay with H460 came out at 30.
Take `CN1CCN(S(=O)(=O)CCC(c2ccsc2[N+](=O)[O-])S(=O)(=O)Oc2ccc(N(CCCl)CCCl)cc2)CC1` (centres unmarked) [TH-1326, 3-(4-(N,N-bis-(2-Chloroethyl)amino)phenoxysulfonyl-(2-((N-methylpiperazin-4-yl)sulfonyl)ethyl))methyl-2-nitrothiophene]: the “HT29 HCR: Air/N2” value in the assay with HT29 came to 48. For the same molecule, the IC50 in the assay on HT29 (read-out: 2 hr Air HT29 IC50) came out at 126 µM; in the assay with HT29 (read-out: 2 hr N2 HT29 IC50) it was 2.6 µM; in the assay on H460 (read-out: 2 hr Air H460 IC50), 16.6 µM; in the assay with H460 (read-out: 2 hr N2 H460 IC50), 0.4 µM. Besides, the “H460 HCR: Air/N2” value in the assay on H460 is on record as 42.
Consider `O=[N+]([O-])c1sccc1C(Cc1cnc(O)c(Cl)c1)S(=O)(=O)Oc1ccc(N(CCCl)CCCl)cc1` (centres unmarked) [TH-1393], for which the IC50 in the assay with HT29 (read-out: 2 hr Air HT29 IC50) was determined as 710 µM; in the assay on HT29 (read-out: 2 hr N2 HT29 IC50), 110 µM; in the assay on H460 (read-out: 2 hr Air H460 IC50), 151 µM; with H460 (read-out: 2 hr N2 H460 IC50), 1.7 µM. The “H460 HCR: Air/N2” value in the assay with H460 worked out at 89.
Consider `O=[N+]([O-])c1sccc1C(CCS(=O)(=O)c1ccncc1)S(=O)(=O)Oc1ccc(N(CCCl)CCCl)cc1` (centres unmarked) [TH-1363], for which the IC50 in the assay on HT29 (read-out: 2 hr Air HT29 IC50) is above 1000 µM; in the assay on HT29 (read-out: 2 hr N2 HT29 IC50), above 1000 µM; in the assay on H460 (read-out: 2 hr Air H460 IC50), 68 µM; in the assay on H460 (read-out: 2 hr N2 H460 IC50) it was 0.6 µM. Besides, the “H460 HCR: Air/N2” value with H460 is 113.
Regarding `O=[N+]([O-])c1sccc1C(CCS(=O)(=O)Oc1ccccc1)S(=O)(=O)Oc1ccc(N(CCCl)CCCl)cc1` (centres unmarked) [TH-1292, 3-(4-(N,N-bis-(2-Chloroethyl)amino)phenoxysulfonyl-(2-phenoxysulfonylethyl))methyl-2-nitrothiophene], the “HT29 HCR: Air/N2” value in the assay on HT29 is on record as 158. Besides, the IC50 with HT29 (read-out: 2 hr Air HT29 IC50) is 760 µM; in the assay with HT29 (read-out: 2 hr N2 HT29 IC50) it was 4.8 µM; with H460 (read-out: 2 hr Air H460 IC50) it was 195 µM; with H460 (read-out: 2 hr N2 H460 IC50), 1.5 µM. Also, the “H460 HCR: Air/N2” value in the assay with H460 is listed as 127.7.
For the molecule `CCN(CC)CC#CCC(c1ccsc1[N+](=O)[O-])S(=O)(=O)Oc1ccc(N(CCCl)CCCl)cc1` (centres unmarked) [TH-1545], in the assay on HT29, the “HT29 HCR: Air/N2” value worked out at 12. For the same molecule, the IC50 in the assay with HT29 (read-out: 2 hr Air HT29 IC50) came to 60 µM; in the assay on HT29 (read-out: 2 hr N2 HT29 IC50), 5 µM; with H460 (read-out: 2 hr Air H460 IC50), 102 µM; in the assay with H460 (read-out: 2 hr N2 H460 IC50) it was 2 µM. The “H460 HCR: Air/N2” value in the assay with H460 is recorded as 51.
Take `O=[N+]([O-])c1sccc1C(CNS(=O)(=O)c1ccc(F)cc1)S(=O)(=O)Oc1ccc(N(CCCl)CCCl)cc1` (centres unmarked) [TH-1311]: the IC50 is above 300 µM in the assay on HT29 (read-out: 2 hr Air HT29 IC50), above 300 µM in the assay with HT29 (read-out: 2 hr N2 HT29 IC50), 57.3 µM with H460 (read-out: 2 hr Air H460 IC50) and 0.4 µM in the assay with H460 (read-out: 2 hr N2 H460 IC50). Also, in the assay with H460, the “H460 HCR: Air/N2” value came out at 143.
In the case of `O=[N+]([O-])c1sccc1C(COC1CCCCC1)S(=O)(=O)Oc1ccc(N(CCCl)CCCl)cc1` (centres unmarked) [TH-1521], in the assay on HT29, the “HT29 HCR: Air/N2” value is listed as above 3.2. In addition, the IC50 is above 300 µM with HT29 (read-out: 2 hr Air HT29 IC50), 93 µM in the assay with HT29 (read-out: 2 hr N2 HT29 IC50), 234 µM in the assay with H460 (read-out: 2 hr Air H460 IC50) and 1.3 µM in the assay on H460 (read-out: 2 hr N2 H460 IC50). The “H460 HCR: Air/N2” value in the assay on H460 turned out to be 180.
For `CC(=O)Nc1ncccc1CC(c1ccsc1[N+](=O)[O-])S(=O)(=O)Oc1ccc(N(CCCl)CCCl)cc1` (centres unmarked) [TH-1375], in the assay on HT29, the “HT29 HCR: Air/N2” value is listed as 16. Also, the IC50 in the assay on HT29 (read-out: 2 hr Air HT29 IC50) turned out to be 280 µM; in the assay with HT29 (read-out: 2 hr N2 HT29 IC50), 17 µM; with H460 (read-out: 2 hr Air H460 IC50) it was 28 µM; in the assay with H460 (read-out: 2 hr N2 H460 IC50), 0.3 µM. For the same molecule, the “H460 HCR: Air/N2” value in the assay with H460 is given as 93.
In the case of `O=[N+]([O-])c1sccc1C(Cn1nnc2ccccc21)S(=O)(=O)Oc1ccc(N(CCCl)CCCl)cc1` (centres unmarked) [TH-1343, 3-(4-(N,N-bis-(2-Chloroethyl)amino)phenoxysulfonyl-(benzotriazol-1-yl-methyl))methyl-2-nitrothiophene], in the assay on HT29, the “HT29 HCR: Air/N2” value is reported as above 4.2. The IC50 with HT29 (read-out: 2 hr Air HT29 IC50) was above 1000 µM; with HT29 (read-out: 2 hr N2 HT29 IC50), 24 µM; in the assay with H460 (read-out: 2 hr Air H460 IC50), 93 µM; in the assay with H460 (read-out: 2 hr N2 H460 IC50), 0.7 µM. Moreover, in the assay on H460, the “H460 HCR: Air/N2” value came to 133.
As to `O=[N+]([O-])c1sccc1C(Cc1ccc(N2CCOCC2)nc1)S(=O)(=O)Oc1ccc(N(CCCl)CCCl)cc1` (centres unmarked) [TH-1426], the IC50 with HT29 (read-out: 2 hr Air HT29 IC50) was above 300 µM; in the assay on HT29 (read-out: 2 hr N2 HT29 IC50), above 300 µM; with H460 (read-out: 2 hr Air H460 IC50), 190 µM; in the assay with H460 (read-out: 2 hr N2 H460 IC50), 0.2 µM. In the assay on H460, the “H460 HCR: Air/N2” value is reported as 950.
Turning to `O=[N+]([O-])c1sccc1C(CCS(=O)(=O)c1ccccc1)S(=O)(=O)Oc1ccc(N(CCCl)CCCl)cc1` (centres unmarked) [TH-1278], the IC50 is above 1000 µM in the assay on HT29 (read-out: 2 hr Air HT29 IC50), above 1000 µM with HT29 (read-out: 2 hr N2 HT29 IC50), 61.4 µM in the assay with H460 (read-out: 2 hr Air H460 IC50) and 0.3 µM in the assay on H460 (read-out: 2 hr N2 H460 IC50). Moreover, the “H460 HCR: Air/N2” value in the assay with H460 worked out at 205.
In the case of `O=[N+]([O-])c1sccc1C(Cc1nccs1)S(=O)(=O)Oc1ccc(N(CCCl)CCCl)cc1` (centres unmarked) [TH-1419], the IC50 in the assay on HT29 (read-out: 2 hr Air HT29 IC50) is above 300 µM; in the assay on HT29 (read-out: 2 hr N2 HT29 IC50) it was above 300 µM; with H460 (read-out: 2 hr Air H460 IC50), 36 µM; in the assay with H460 (read-out: 2 hr N2 H460 IC50), 0.8 µM. Further, the “H460 HCR: Air/N2” value in the assay on H460 worked out at 45.
Take `O=C(CO)Nc1ccc(CC(c2ccsc2[N+](=O)[O-])S(=O)(=O)Oc2ccc(N(CCCl)CCCl)cc2)cc1` (centres unmarked) [TH-1400]: in the assay with HT29, the “HT29 HCR: Air/N2” value was found to be 2.1. Further, the IC50 was 170 µM in the assay with HT29 (read-out: 2 hr Air HT29 IC50), 80 µM in the assay on HT29 (read-out: 2 hr N2 HT29 IC50), 76 µM in the assay with H460 (read-out: 2 hr Air H460 IC50) and 1.4 µM in the assay on H460 (read-out: 2 hr N2 H460 IC50). The “H460 HCR: Air/N2” value with H460 is listed as 54.3.
